Measurements published in patent EP4703357A1, “TRIAZOLYL-CONTAINING COMPOUNDS” (Chia Tai Tianqing Pharmaceutical Group Co., Ltd., priority 2023, dated 2024).
Where two headings read alike, the source gives them in different places.

Assays:
Jurkat cells = experiment: Inhibitory activity on Jurkat cell proliferation (CCK-8); type: cell-based; details: Homo sapiens, 72 h incubation
Procedure: (§1) Jurkat cells in a good growth state were collected into a centrifuge tube, adjusted to a cell density of 5 × 10^4 cells/mL, and seeded in a 96-well plate (100 µL/well). The cells were incubated overnight in a cell incubator. Compounds were added using a nanoliter pipettor such that the final concentrations of the compounds were 1000 nM-0.46 nM (the addition was performed in duplicate). Meanwhile, a control was set. After another 72 h of incubation in the cell incubator, the assay reagent CCK-8 (manufacturer: Dojindo Laboratories, Beijing; 10 µL/well) was added. After 2 h of incubation in the cell incubator, absorbance was measured at 450 nm on an Envision microplate reader. A four-parameter analysis was performed, a dose-response curve was fit, and IC50 was calculated.

OCI-LY10 cells = experiment: Inhibitory activity on OCI-LY10 cell proliferation (CCK-8); type: cell-based; details: Homo sapiens, 72 h incubation
Procedure: as §1, with “OCI-LY10 cells” for “Jurkat cells”, “of 9” for “of 5”

[1] = In vitro liver microsomal stability, mouse; type: in vitro ADME; details: mouse liver microsome 0.5 mg/mL, NADPH, 37 °C, 1 h
Procedure: (§2) Liver microsome incubation samples were prepared by mixing a PBS buffer (pH = 7.4), a liver microsome solution (0.5 mg/mL), a test compound, and an NADPH + MgCl2 solution, and incubated at 37 °C and 300 rpm for 1 h. Zero-hour samples were prepared by mixing a PBS buffer (pH = 7.4), a liver microsome solution (0.5 mg/mL), and a test compound. An acetonitrile solution containing an internal standard was added to the samples, and supernatants were prepared by protein precipitation, diluted, and then assayed by LC/MS/MS. Table 17. In vitro metabolic stability of related compounds in liver microsomes of various species

[2] = In vitro liver microsomal stability, human; type: in vitro ADME; details: human liver microsome 0.5 mg/mL, NADPH, 37 °C, 1 h
Procedure: as §2

Mouse pharmacokinetics [3] = type: in vivo; details: ICR, plasma, po, 3 mg/kg, Mice administered intragastrically 3 mpk; for AUC(0-t): read-out: AUC (0-24)
Procedure: ICR mice weighing 18-22 g were randomized into groups of 9 mice per group after 3-5 days of acclimatization and then administered intragastrically at a dose of 3 mg/kg.
Plasma samples to be tested were prepared by taking blood from the orbit at time points of 15 min, 30 min, 1 h, 2 h, 4 h, 6 h, 8 h, 10 h, and 24 h.
20 µL of each plasma sample to be tested and a standard curve sample were taken, and an acetonitrile solution containing an internal standard was added. A supernatant was obtained by protein precipitation, diluted, and then assayed by LC/MS/MS.
Pharmacokinetic parameters were fitted using a non-compartmental model.

Mouse pharmacokinetics [4] = type: in vivo, ICR mice; details: ICR, plasma; for AUC(0-t): read-out: AUC (0-24)
[5] = 1 mg/kg, Mice administered by single intravenous injection 1 mpk
[6] = po, 3 mg/kg, Mice administered intragastrically 3 mpk

| IC50 (Jurkat cells) [nM] | IC50 (OCI-LY10 cells) [nM] | Mouse liver microsome Residuals at 60 min (%) [1] [%] | Human liver microsome Residuals at 60 min (%) [2] [%] | also measured | Structure (SMILES) |
| --- | --- | --- | --- | --- | --- |
| ≤ 20 | ≤ 40 | 87.82 | 92.23 | Cmax (Mouse pharmacokinetics [3]): 483 ng/mL; Tmax (Mouse pharmacokinetics [3]): 3 h; half-life (Mouse pharmacokinetics [3]): 2.57 h; AUC(0-t) (Mouse pharmacokinetics [3]): 2730 ng·h/mL; AUC(0-inf) (Mouse pharmacokinetics [4]; [5]): 879 ng·h/mL; clearance (Mouse pharmacokinetics [4]; [5]): 19 mL/min/kg; half-life (Mouse pharmacokinetics [4]; [5]): 1.26 h; AUC(0-t) (Mouse pharmacokinetics [4]; [5]): 874 ng·h/mL; AUC(0-inf) (Mouse pharmacokinetics [4]; [6]): 2730 ng·h/mL | NC(=O)/C(=C/n1cnc(-c2cc(C(F)(F)F)nc(C(F)(F)F)c2)n1)c1cnc(NCC(F)F)nc1 [2(2-A)] |
| ≤ 20 | ≤ 40 | 94.26 | 95.65 | Cmax (Mouse pharmacokinetics [3]): 681 ng/mL; Tmax (Mouse pharmacokinetics [3]): 3 h; half-life (Mouse pharmacokinetics [3]): 2.8 h; AUC(0-t) (Mouse pharmacokinetics [3]): 5280 ng·h/mL; AUC(0-inf) (Mouse pharmacokinetics [4]; [5]): 1570 ng·h/mL; clearance (Mouse pharmacokinetics [4]; [5]): 10.6 mL/min/kg; half-life (Mouse pharmacokinetics [4]; [5]): 1.66 h; AUC(0-t) (Mouse pharmacokinetics [4]; [5]): 1540 ng·h/mL; AUC(0-inf) (Mouse pharmacokinetics [4]; [6]): 5300 ng·h/mL | CC(F)(F)CNc1ncc(/C(=C\n2cnc(-c3cc(C(F)(F)F)nc(C(F)(F)F)c3)n2)C(N)=O)cn1 [3(3-A)] |
| ≤ 20 | ≤ 40 | 88.38 | 87.55 | Cmax (Mouse pharmacokinetics [3]): 599 ng/mL; Tmax (Mouse pharmacokinetics [3]): 3 h; half-life (Mouse pharmacokinetics [3]): 3.48 h; AUC(0-t) (Mouse pharmacokinetics [3]): 4600 ng·h/mL; AUC(0-inf) (Mouse pharmacokinetics [4]; [5]): 1630 ng·h/mL; clearance (Mouse pharmacokinetics [4]; [5]): 10.2 mL/min/kg; half-life (Mouse pharmacokinetics [4]; [5]): 1.34 h; AUC(0-t) (Mouse pharmacokinetics [4]; [5]): 1620 ng·h/mL; AUC(0-inf) (Mouse pharmacokinetics [4]; [6]): 4650 ng·h/mL | CC(F)(F)CNc1ncc(/C(=C\n2cnc(-c3cc(C4CC4)nc(C(F)(F)F)c3)n2)C(N)=O)cn1 [15(15-A)] |
| ≤ 20 | ≤ 40 | 83.25 | 102.40 | Cmax (Mouse pharmacokinetics [3]): 874 ng/mL; Tmax (Mouse pharmacokinetics [3]): 1 h; half-life (Mouse pharmacokinetics [3]): 2.55 h; AUC(0-t) (Mouse pharmacokinetics [3]): 3480 ng·h/mL; AUC(0-inf) (Mouse pharmacokinetics [4]; [5]): 1040 ng·h/mL; clearance (Mouse pharmacokinetics [4]; [5]): 16 mL/min/kg; half-life (Mouse pharmacokinetics [4]; [5]): 1.41 h; AUC(0-t) (Mouse pharmacokinetics [4]; [5]): 1040 ng·h/mL; AUC(0-inf) (Mouse pharmacokinetics [4]; [6]): 3800 ng·h/mL | Cc1ccc(/C(=C\n2cnc(-c3cc(C4CC4)nc(C(F)(F)F)c3)n2)C(N)=O)cn1 [38(38-A)] |
| ≤ 20 | ≤ 40 |  |  |  | NC(=O)/C(=C/n1cnc(-c2cc(C3CC3)nc(C(F)(F)F)c2)n1)c1ccc2cccnc2c1 [59(59-A)] |
| ≤ 20 | ≤ 40 | 97.97 | 101.38 |  | NC(=O)C(=Cn1cnc(-c2cc(C(F)(F)F)nc(C(F)(F)F)c2)n1)c1cncnc1 [Compound 1] |
| ≤ 20 | ≤ 40 | 93.27 | 100.33 |  | NC(=O)/C(=C/n1cnc(-c2cc(C(F)(F)F)nc(C(F)(F)F)c2)n1)c1cnc(NCC(F)(F)F)nc1 [Compound 4] |
| ≤ 20 | ≤ 40 | 99.03 | 97.64 |  | C[C@@H](Nc1ncc(/C(=C\n2cnc(-c3cc(C(F)(F)F)nc(C(F)(F)F)c3)n2)C(N)=O)cn1)C(F)(F)F [Compound 5] |
| ≤ 20 | ≤ 40 | 93.99 | 95.75 |  | N#Cc1cncc(/C(=C\n2cnc(-c3cc(C(F)(F)F)nc(C(F)(F)F)c3)n2)C(N)=O)c1 [Compound 10] |
| ≤ 20 | ≤ 40 | 91.15 | 93.23 |  | NC(=O)/C(=C/n1cnc(-c2cc(C3CC3)nc(C(F)(F)F)c2)n1)c1cncnc1 [Compound 13] |
| ≤ 20 | ≤ 40 | 83.14 | 80.48 |  | NC(=O)/C(=C/n1cnc(-c2cc(C3CC3)nc(C(F)(F)F)c2)n1)c1cnc(NCC(F)F)nc1 [Compound 14] |
| ≤ 20 | ≤ 40 | 90.60 | 88.75 |  | NC(=O)/C(=C/n1cnc(-c2cc(C3CC3)nc(C(F)(F)F)c2)n1)c1cnc(NCC(F)(F)F)nc1 [Compound 16] |
| ≤ 20 | ≤ 40 | 95.11 | 93.92 |  | C[C@@H](Nc1ncc(/C(=C\n2cnc(-c3cc(C4CC4)nc(C(F)(F)F)c3)n2)C(N)=O)cn1)C(F)(F)F [Compound 17] |
| ≤ 20 | ≤ 40 | 90.27 | 96.64 |  | NC(=O)/C(=C/n1cnc(-c2cc(C3CC3)nc(C(F)(F)F)c2)n1)c1cnc2ccccc2c1 [Compound 26] |
| ≤ 20 | ≤ 40 | 89.94 | 98.75 |  | N#Cc1cncc(/C(=C\n2cnc(-c3cc(C4CC4)nc(C(F)(F)F)c3)n2)C(N)=O)c1 [Compound 30] |
| ≤ 20 | ≤ 40 | 95.08 | 100.32 |  | NC(=O)/C(=C/n1cnc(-c2cc(C3CC3)nc(C(F)(F)F)c2)n1)c1cccnc1F [Compound 32] |
| ≤ 20 | ≤ 40 | 98.21 | 104.79 |  | NC(=O)/C(=C/n1cnc(-c2cc(C3CC3)nc(C(F)(F)F)c2)n1)c1cnc2cccnc2c1 [Compound 33] |
| ≤ 20 | ≤ 40 |  |  |  | NC(=O)/C(=C/n1cnc(-c2cc(C3CC3)nc(C(F)(F)F)c2)n1)c1ccnc(F)c1 [Compound 36] |
| ≤ 20 | ≤ 40 |  |  |  | NC(=O)/C(=C/n1cnc(-c2cc(C3CC3)nc(C(F)(F)F)c2)n1)c1cccc(F)n1 [Compound 37] |
| ≤ 20 | ≤ 40 | 89.18 | 106.91 |  | NC(=O)/C(=C/n1cnc(-c2cc(C3CC3)nc(C(F)(F)F)c2)n1)c1ccc(F)nc1 [Compound 39] |
| ≤ 20 | ≤ 40 |  |  |  | NC(=O)/C(=C/n1cnc(-c2cc(C3CC3)nc(C(F)(F)F)c2)n1)c1ccc(NCC(F)(F)F)nc1 [Compound 40] |
| ≤ 20 | ≤ 40 |  |  |  | NC(=O)/C(=C/n1cnc(-c2cc(C3CC3)nc(C(F)(F)F)c2)n1)c1ccc(NCC(F)F)nc1 [Compound 41] |
| ≤ 20 | ≤ 40 |  |  |  | NC(=O)/C(=C/n1cnc(-c2cc(C3CC3)nc(C(F)(F)F)c2)n1)c1ccncc1 [Compound 43] |
| ≤ 20 | ≤ 40 |  |  |  | NC(=O)/C(=C/n1cnc(-c2cc(C(F)(F)F)nc(C(F)(F)F)c2)n1)c1ccc(NCC(F)(F)F)nc1 [Compound 46] |
| ≤ 20 | ≤ 40 |  |  |  | NC(=O)/C(=C/n1cnc(-c2cc(C(F)(F)F)nc(C(F)(F)F)c2)n1)c1ccc(C(F)(F)F)nc1 [Compound 53] |
| ≤ 20 | ≤ 40 |  |  |  | NC(=O)/C(=C/n1cnc(-c2cc(C(F)(F)F)nc(C(F)(F)F)c2)n1)c1ccc(NCC(F)F)nc1 [Compound 54] |
| ≤ 20 | ≤ 40 |  |  |  | NC(=O)/C(=C/n1cnc(-c2cc(C3CC3)nc(C(F)(F)F)c2)n1)c1ccc2ncccc2c1 [Compound 57] |
| ≤ 20 | ≤ 40 |  |  |  | NC(=O)/C(=C/n1cnc(-c2cc(C3CC3)nc(C(F)(F)F)c2)n1)c1ccc(C(F)(F)F)nc1 [Compound 60] |
